Results reported in ChEMBL document CHEMBL5375983, “Discovery of YSR734: A Covalent HDAC Inhibitor with Cellular Activity in Acute Myeloid Leukemia and Duchenne Muscular Dystrophy” (J Med Chem, 2023).
Activity calls are given as the source filed them. The calls are words filed in the database; no cut-off is given here.

How the values were obtained:
[1] = biological target: Histone deacetylase 1/2/3 (Homo sapiens) (UniProt Q13547+O15379+Q92769); assay: […] binding affinity to HDAC1/2/3 in human MV4-11 cells assessed as increase in Ac-histone-H3 level at […] incubated for 6 hrs followed by compound washout and measured after 16 hrs by Western blot analysis; format: cell-based; details: dose 2.5 µM
[2] = AUCinfinity in CD-1 mouse at 10 mg/kg, ip measured upto 12 hrs by LC-MS/MS analysis; format: ADME, organism-based; parameters: time < 12 hrs, dose 10 mg/kg, route ip; details: in vivo
[3] = Tmax in CD-1 mouse at 10 mg/kg, ip measured upto 12 hrs by LC-MS/MS analysis; format: ADME, organism-based; details: in vivo
[4] = Cmax in CD-1 mouse at 10 mg/kg, ip measured upto 12 hrs by LC-MS/MS analysis; format: ADME, organism-based; parameters: time < 12 hrs, dose 10 mg/kg, route ip; details: in vivo
[5] = Half life in CD-1 mouse at 10 mg/kg, ip measured upto 12 hrs by LC-MS/MS analysis; format: ADME, organism-based; details: in vivo
[6] = system: MV4-11; assay: Induction of apoptosis in human MV4-11 cells assessed as healthy cells at 1 uM measured after 6 hrs by annexin V-FITC/PI staining based FACS assay (reference value: 63.50%); format: functional
[7] = system: MV4-11; assay: Induction of apoptosis in human MV4-11 cells assessed as healthy cells at 4 uM measured after 6 hrs by annexin V-FITC/PI staining based FACS assay (reference value: 63.50%); format: functional
[8] = system: RS4-11; assay: Cytotoxicity against human RS4-11 cells assessed as inhibition of cell growth incubated for 72 hrs by celltiter-blue viability assay; format: functional, cell-based; details: RS4-11, 72 h
[9] = system: MV4-11; assay: Cytotoxicity against human MV4-11 cells assessed as inhibition of cell growth incubated for 72 hrs by celltiter-blue viability assay; format: functional, cell-based; details: MV4-11, 72 h
[10] = biological target: T1, Histone deacetylase 11 (Homo sapiens, UniProt Q96DB2); assay: Inhibition of full length recombinant human HDAC11 expressed in Sf9 cells using 6-carboxyfluorescein peptide as substrate preincubated with compound for 6 hrs followed by substrate addition and measured after 17 hrs by electrophoretic mobility shift assay
T1 sequence (Q96DB2 whole entry): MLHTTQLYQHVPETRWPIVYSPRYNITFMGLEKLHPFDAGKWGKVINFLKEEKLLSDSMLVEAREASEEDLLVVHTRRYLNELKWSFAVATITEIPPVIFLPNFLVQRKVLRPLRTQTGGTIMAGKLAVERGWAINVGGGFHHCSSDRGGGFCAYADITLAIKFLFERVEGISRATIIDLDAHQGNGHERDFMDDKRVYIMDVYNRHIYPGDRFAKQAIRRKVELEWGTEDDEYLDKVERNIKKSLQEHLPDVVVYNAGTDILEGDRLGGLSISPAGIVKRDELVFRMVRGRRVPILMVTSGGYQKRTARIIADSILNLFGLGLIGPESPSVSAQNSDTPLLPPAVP

[11] = system: MV4-11; assay: Induction of apoptosis in human MV4-11 cells assessed as late apoptotic cells at 4 uM measured after 6 hrs by annexin V-FITC/PI staining based FACS assay (reference value: 16.21%); format: functional
[12] = Stability in human whole blood assessed as half life at 100 uM measured upto 40 mins by LC-MS/MS analysis; format: ADME, tissue-based
[13] = MRT in CD-1 mouse at 10 mg/kg, ip measured upto 12 hrs by LC-MS/MS analysis; format: ADME, organism-based; details: in vivo
[14] = Glutathione reactivity assessed as compound consumption at 500 nM incubated for 16 hrs by LC-MS/MS analysis; format: ADME; details: glutathione solution, read-out: Drug metabolism
[15] = system: MV4-11; assay: Induction of apoptosis in human MV4-11 cells assessed as late apoptotic cells at 1 uM measured after 6 hrs by annexin V-FITC/PI staining based FACS assay (reference value: 16.21%); format: functional
[16] = Cytotoxicity against human MRC9 cells assessed as inhibition of cell growth incubated for 72 hrs by celltiter-blue viability assay; format: toxicity, cell-based
[17] = biological target: T2, Histone deacetylase 1 (Homo sapiens, UniProt Q13547); assay: Inhibition of HDAC1 (unknown origin) using 6-carboxyfluorescein peptide as substrate preincubated with compound followed by substrate addition by electrophoretic mobility shift assay
[18] = biological target: T3, Histone deacetylase 2 (Homo sapiens, UniProt Q92769); assay: Inhibition of HDAC2 (unknown origin) using 6-carboxyfluorescein peptide as substrate preincubated with compound followed by substrate addition by electrophoretic mobility shift assay
[19] = biological target: T3, Histone deacetylase 2; assay: Inhibition of HDAC2 (unknown origin) using 6-carboxyfluorescein peptide as substrate preincubated with compound for 2 hrs followed by substrate addition by electrophoretic mobility shift assay
[20] = biological target: T3, Histone deacetylase 2; assay: Inhibition of HDAC2 (unknown origin) using 6-carboxyfluorescein peptide as substrate preincubated with compound for 6 hrs followed by substrate addition by electrophoretic mobility shift assay
[21] = Selectivity index, ratio of IC50 for cytotoxicity against human MRC9 cells to IC50 for cytotoxicity against human MV4-11 cells
[22] = biological target: T4, Histone deacetylase 8 (Homo sapiens, UniProt Q9BY41); assay: Inhibition of full length recombinant human HDAC8 expressed in Sf9 cells using 6-carboxyfluorescein peptide as substrate preincubated with compound followed by substrate addition and measured after 3 hrs by electrophoretic mobility shift assay
T4 sequence (Q9BY41 whole entry): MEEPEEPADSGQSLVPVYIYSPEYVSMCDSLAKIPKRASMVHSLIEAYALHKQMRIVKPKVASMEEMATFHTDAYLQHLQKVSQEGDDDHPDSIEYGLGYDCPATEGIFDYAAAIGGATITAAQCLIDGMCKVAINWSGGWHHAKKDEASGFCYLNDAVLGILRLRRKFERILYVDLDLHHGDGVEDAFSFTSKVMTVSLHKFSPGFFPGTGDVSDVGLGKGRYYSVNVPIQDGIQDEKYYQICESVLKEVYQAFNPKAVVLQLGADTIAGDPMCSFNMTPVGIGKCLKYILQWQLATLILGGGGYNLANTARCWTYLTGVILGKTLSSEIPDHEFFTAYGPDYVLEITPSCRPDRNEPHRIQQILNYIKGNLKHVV

[23] = biological target: T2, Histone deacetylase 1; assay: Inhibition of HDAC1 (unknown origin) using 6-carboxyfluorescein peptide as substrate preincubated with compound for 6 hrs followed by substrate addition by electrophoretic mobility shift assay
[24] = biological target: T5, Histone deacetylase 3 (Homo sapiens, UniProt O15379); assay: Inhibition of full length recombinant human HDAC3 expressed in Sf9 cells using 6-carboxyfluorescein peptide as substrate preincubated with compound followed by substrate addition and measured after 3 hrs by electrophoretic mobility shift assay; format: cell-based
[25] = biological target: T5, Histone deacetylase 3; assay: Inhibition of full length recombinant human HDAC3 expressed in Sf9 cells using 6-carboxyfluorescein peptide as substrate preincubated with compound for 2 hrs followed by substrate addition and measured after 3 hrs by electrophoretic mobility shift assay; format: cell-based
[26] = biological target: T5, Histone deacetylase 3; assay: Inhibition of full length recombinant human HDAC3 expressed in Sf9 cells using 6-carboxyfluorescein peptide as substrate preincubated with compound for 6 hrs followed by substrate addition and measured after 3 hrs by electrophoretic mobility shift assay; format: cell-based
[27] = Glutathione reactivity assessed as compound consumption at 500 nM measured after 1 to 3 hrs by LC-MS/MS analysis; format: ADME; details: glutathione solution, time 1-3 hrs, read-out: Activity
[28] = biological target: T3, Histone deacetylase 2; assay: Binding affinity to recombinant full length HDAC2 catalytic domain Cys274 (unknown origin) assessed as formation of single covalent adduct at 50 uM incubated for 2 hrs by trypsin-digest protein mapping analysis

T2 sequence (Q13547 whole entry): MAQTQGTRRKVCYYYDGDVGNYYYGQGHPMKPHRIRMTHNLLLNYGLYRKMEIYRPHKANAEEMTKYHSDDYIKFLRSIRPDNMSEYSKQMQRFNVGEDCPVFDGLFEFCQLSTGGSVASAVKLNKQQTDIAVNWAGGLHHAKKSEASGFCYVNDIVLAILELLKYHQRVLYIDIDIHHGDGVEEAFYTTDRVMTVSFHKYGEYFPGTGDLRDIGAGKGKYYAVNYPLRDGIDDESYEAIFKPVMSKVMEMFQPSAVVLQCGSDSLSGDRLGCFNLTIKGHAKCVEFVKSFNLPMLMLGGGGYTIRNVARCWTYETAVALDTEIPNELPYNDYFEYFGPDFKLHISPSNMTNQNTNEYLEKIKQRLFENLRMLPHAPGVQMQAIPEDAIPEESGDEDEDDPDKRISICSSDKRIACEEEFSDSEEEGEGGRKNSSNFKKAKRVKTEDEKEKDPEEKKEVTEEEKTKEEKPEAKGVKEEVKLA
T3 sequence (Q92769 whole entry): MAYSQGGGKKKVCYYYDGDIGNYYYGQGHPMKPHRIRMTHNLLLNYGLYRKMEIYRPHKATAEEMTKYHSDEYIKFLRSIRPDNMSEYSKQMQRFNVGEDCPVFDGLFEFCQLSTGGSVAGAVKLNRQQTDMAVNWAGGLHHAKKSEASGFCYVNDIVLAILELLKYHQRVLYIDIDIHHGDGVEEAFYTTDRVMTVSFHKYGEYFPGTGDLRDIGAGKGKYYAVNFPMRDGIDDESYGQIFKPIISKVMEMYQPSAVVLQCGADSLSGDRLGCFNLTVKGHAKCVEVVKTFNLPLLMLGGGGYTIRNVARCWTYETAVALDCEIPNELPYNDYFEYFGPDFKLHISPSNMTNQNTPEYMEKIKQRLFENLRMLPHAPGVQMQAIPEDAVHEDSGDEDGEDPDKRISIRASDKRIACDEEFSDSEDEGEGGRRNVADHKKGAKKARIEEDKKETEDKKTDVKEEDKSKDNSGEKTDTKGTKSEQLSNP
T5 sequence (O15379 whole entry): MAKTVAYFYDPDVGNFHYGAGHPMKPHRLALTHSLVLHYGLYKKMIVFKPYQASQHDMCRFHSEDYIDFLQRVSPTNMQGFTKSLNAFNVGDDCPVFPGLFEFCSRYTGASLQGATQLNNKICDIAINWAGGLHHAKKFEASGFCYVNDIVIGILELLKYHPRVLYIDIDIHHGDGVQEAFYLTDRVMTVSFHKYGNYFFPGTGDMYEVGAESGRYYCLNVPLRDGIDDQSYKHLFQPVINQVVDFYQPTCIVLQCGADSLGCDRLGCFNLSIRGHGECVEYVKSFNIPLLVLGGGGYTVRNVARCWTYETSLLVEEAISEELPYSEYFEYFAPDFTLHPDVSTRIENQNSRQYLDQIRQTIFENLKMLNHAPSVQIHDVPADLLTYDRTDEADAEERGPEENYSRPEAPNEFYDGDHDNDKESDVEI

IC50 [17] [nM]	IC50 [18] [nM]	IC50 [19] [nM]	IC50 [20] [nM]	Compound	IC50 [8] [nM]	IC50 [9] [nM]	IC50 at 72 h [16] [nM]	Ratio IC50 [21]	other results
592	> 1000	861	379	C=CC(=O)N1CCC(OC(=O)NCc2ccc(C(=O)Nc3ccccc3N)cc2)CC1	1530	2320	21600	9	–
> 1000	> 1000	> 1000	720	Nc1ccccc1NC(=O)c1ccc(CNC(=O)OC2CCN(C(=O)CCl)CC2)cc1	–	–	–	–	degraded at 0.5 µM [27]: > 50%
200	808	295	180	CN(C)C/C=C/C(=O)N1CCC(OC(=O)NCc2ccc(C(=O)Nc3ccccc3N)cc2)CC1	1240	1800	31200	17	–
665	> 1000	759	328	C#CC(=O)N1CCC(OC(=O)NCc2ccc(C(=O)Nc3ccccc3N)cc2)CC1	–	–	–	–	degraded at 0.5 µM [27]: > 50%
685	> 1000	823	393	C=C=CC(=O)N1CCC(OC(=O)NCc2ccc(C(=O)Nc3ccccc3N)cc2)CC1	–	–	–	–	–

The next lines start with the compound.

Compound	IC50 [17] [nM]	IC50 [18] [nM]	IC50 [19] [nM]	IC50 [20] [nM]	IC50 [8] [nM]	IC50 [9] [nM]	IC50 at 72 h [16] [nM]	Ratio IC50 [21]	other results
Nc1ccccc1NC(=O)c1ccc(CNC(=O)OC2CCN(S(=O)(=O)c3c(F)c(F)cc(F)c3F)CC2)cc1	–	–	–	–	–	–	–	–	Activity [1]: Active
Nc1ccccc1NC(=O)c1ccc(CNC(=O)OCc2cccnc2)cc1 [ENTINOSTAT]	–	–	–	–	300	710	10200	–	AUC(0-inf) [2]: 5260 ng·h/mL; Tmax [3]: 15 min; Cmax [4]: 6250 ng/mL; half-life [5]: 191 min; Activity [6]: 53.43%; Activity [7]: 40.57%; IC50 [10]: > 1000 nM; Activity [11]: 30.45%; half-life at 100 µM [12]: 45 min; MRT [13]: 57.6 min; degraded at 16 h, 0.5 µM [14]: < 10%; Activity [15]: 23.15%
Nc1ccccc1NC(=O)c1ccc(CNC(=O)OC2CCCCC2)cc1	903	> 1000	490	274	620	1070	10900	10	AUC(0-inf) [2]: 1810 ng·h/mL; IC50 [22]: > 10000 nM; Tmax [3]: 4.8 min; IC50 [23]: 64 nM; Cmax [4]: 2700 ng/mL; IC50 [24]: 273 nM; half-life [5]: 311 min; IC50 [25]: 73 nM; degraded at 16 h, 0.5 µM [14]: < 10%; IC50 [26]: 36 nM
C=CS(=O)(=O)N1CCC(OC(=O)NCc2ccc(C(=O)Nc3ccccc3N)cc2)CC1	445	> 1000	919	380	–	–	–	–	degraded at 0.5 µM [27]: > 50%; Activity [28]: Active
C=CC(=O)N1CCC[C@@H](n2nc(-c3ccc(Oc4ccccc4)cc3)c3c(N)ncnc32)C1 [IBRUTINIB]	–	–	–	–	–	–	–	–	half-life at 100 µM [12]: 64 min
Nc1ccccc1NC(=O)c1ccc(CNC(=O)OC2CCN(S(=O)(=O)CCl)CC2)cc1	369	> 1000	517	200	720	1380	15900	12	–
